Patent publication US9645138B2, “Method to evaluate the tissue targeting of a molecule of interest” (IMABIOTECH, priority 2013, dated 2017)
Read-outs that look alike come from different tables or passages of the source.

What was measured:
[1] = Swiss, mouse, in vivo
Description: (§1) The target tissue, hereinafter “tissue 1”, comprises the medulla and renal calices.
(§2) The non-target adjacent tissue, hereinafter “tissue 2”, is also considered and comprises the renal cortex region.
(§3) Wild-type mice of Swiss strain weighing 25-40 g from Charles River Laboratories were used. […] Mice were sacrificed by CO2 asphyxiation. Kidneys were then removed and plunged into 100% isopentane solution cooled by liquid nitrogen for rapid freezing. Finally, kidneys were stored at −80° C.
(§4) Kidneys were sectioned into 10 μm thick layers (sagittal sections) using a Microm HM560 (Thermo Scientific, France) cooled at −21° C. The sections were then deposited on conductive ITO (indium tin oxide) slides (Delta Technology, USA). Finally, the sections were kept in the cryostat chamber 30 min for cryodrying and then placed in a desiccator for 30 minutes.
(§5) A CHCA matrix was used for the analysis of all kidney tissue sections. This matrix was prepared at a concentration of 10 mg/ml in acetonitrile/water+0.1% TFA (6:1, v/v). The matrix solution was deposited using the SunCollect spraying system (SunChrom, Germany) following optimized protocol.
(§6) The images were obtained using an AutoFlex Speed MALDI-TOF mass spectrometer (Bruker Daltonics, Bremen, Germany) equipped with a Smartbeam II laser. The data was generated in positive reflectron mode. A total of 500 spectra were obtained for each spot with a 1000 Hz laser frequency and a 200×200 μm^2 image spatial resolution on a mass range of 100 to 1000 Da. The FlexImaging version 4.0 software was used to reconstruct the images and Quantinetix 1.6 software (ImaBiotech, Loos, France) permitted the extraction of spectral intensities of ions corresponding to each studied molecule.
(§7) The imaging data treatment software Quantinetix is used to extract relative intensities of each ion of interest and control compound for each position (or voxel) within each drawn region.
(§8) The next step is to normalize the whole dataset in order to compare them. The highest intensity related to each ion is used to normalize the intensities per position. One calculates mean normalized intensities for each ion and tissue type.
(§9) By definition, one considers that positive control compound factor F1 is equal to 100% whereas negative control compound factor F1 is equal to 0%.
(§10) F2 factor calculation is performed using normalized intensity values from the previous F1 factor evaluation. Position per position, one assesses the standard deviations of intensity values of the molecule of interest and the negative control with positive control one at the level of the target tissue (T1).
(§11) By definition, the positive control compound's factor F2 is considered equal to 100% whereas the negative control compound's factor F2 is equal to 0%.

[2] = test system: receptor in the brain (GABA); assay: Receptor occupancy / adsorption by MALDI imaging of rat brain sections, Diazepam dosed and Lorazepam washing (Example 2)
Description: FIG. 7 explains the methodology of adsorption of a molecule on tissue using the example of the receptor occupancy process. In this way, it is possible to measure the occupancy efficiency of the receptor by the drug (agonist) administered to the animal compared with an antagonist molecule. In this example, all the steps of the methodology are described: the dosed tissue analysis alone, the washing step with the antagonist solution of the control tissue and the combined dosed/washing analysis of the administrated sample. No negative marker is required for this kind of experiment.
Of course, in an almost identical manner an imaging device other that MALDI can be used, such as the following: SIMS, DESI, DIOS, ICP, MALDI microscope, SNOM, SMALDI, LA-ICP, ESI (liquid extraction on tissue), MILDI, JEDI, ELDI, etc.
Wild-type rats weighing 35-40 g were used. […] Animals (dosed and control rats) were sacrificed by CO2 asphyxiation. […] Finally, brains were stored at −80° C.
Brains (control and dosed tissues) were sectioned into 10 μm thick layers (coronal section) using a Microm HM560 (Thermo Scientific, France) cooled at −20° C.
The antagonist solution was prepared from a stock solution of Lorazepam at 1 mg/ml in methanol (100%). The final concentration of the washing solution was fixed at 100 pmol/μL in methanol/water+0.1% TFA (7:3). The concentration of the antagonist is a crucial factor for receptor occupancy that improves the binding capacity of the molecule. 20 μL of the solution was spotted on the tissue section (one dosed and one control sample) and then incubated for 1 hour at 37° C. in a box inside an INCU-Line incubator (VWR, France). A dosed brain section without washing was also put in the incubator.
After incubation, tissues were washed using 2 steps to remove unbound molecules from the tissue, firstly with a solution of methanol/water+0.1% TFA (7:3) corresponding to the antagonist washing solution. Secondly, the tissue is washed using only water solution (10 mL) and then placed into a desiccator for 15 min.
A DHB matrix was used for the analysis of all brain tissue sections with or without washing with the Lorazepam solution. This matrix was prepared at a concentration of 40 mg/ml in methanol/water+0.1% TFA (1:1, v/v).
The data was generated in positive reflectron mode.
The F2 factor allows comparison of the fine localization of the agonist and the antagonist in the white matter region and gives information about their similarity or dissimilarity.

[3] = MALDI mass spectrometry imaging of mouse kidney sections after oral co-administration (Example 1)
Description: as §1, §2, §3, §4, §5, §6, §7, §8, §9, §10, §11

[4] = rat brain targeted area T1, positive marker Lorazepam = 100%
[5] = mouse kidney target tissue T1, positive control 100% and negative control 0% by definition

Compound: CN1C(=O)CC(C)(c2ccccc2)C1=O (centres unmarked) [Methsuximide]
- % Tg (global targeting coefficient) [1]: 0%
- F1 (%) [1]: 0%
- F2 (%) [1]: 0%
- Mean normalized intensity per tissue T1 ([1]; po, 8 mg/kg): 0.062
- Mean normalized intensity per tissue T2 ([1]; po, 8 mg/kg): 0.241

Compound: O=C1Nc2ccc(Cl)cc2C(c2ccccc2Cl)=NC1O (centres unmarked) [Lorazepam]
- localization on the brain section (MSI) ([2]; control tissue section washed with the Lorazepam solution (100 pmol/μL, 1 hour at 37° C.)): especially in the white matter
- F1 (%) [2, 4]: 100%
- F2 (%) [2, 4]: 100%
- Normalized mean intensity/Tissue T1 ([2]; rat brain, targeted area T1 (white matter, receptor binding site), Diazepam 15 mg/kg i.v., Lorazepam washing 100 pmol/μL): 0.821
- Normalized mean intensity/Tissue T2 ([2]; rat brain, untargeted area T2 (rest of the brain), Diazepam 15 mg/kg i.v., Lorazepam washing 100 pmol/μL): 0.21
- % Tar (targeting coefficient) ([2]; target area (Receptor) T1, rat brain): 100%

Compound: CC[C@@H]([C@H](C)O)n1ncn(-c2ccc(N3CCN(c4ccc(OC[C@@H]5CO[C@@](Cn6cncn6)(c6ccc(F)cc6F)C5)cc4)CC3)cc2)c1=O [Posaconazole]
- % Tg (global targeting coefficient) ([3]; mouse kidney target tissue T1): 100%
- F1 (%) [3, 5]: 100%
- F2 (%) [3, 5]: 100%
- Mean normalized intensity per tissue T2 ([3]; mouse kidney, non target tissue T2 (renal cortex), oral 8 mg/kg, MALDI imaging): 0.055
- Mean normalized intensity per tissue T1 ([3]; mouse kidney, target tissue T1 (medulla), oral 8 mg/kg, MALDI imaging): 0.281

Compound: Cc1cc2c(s1)Nc1ccccc1N=C2N1CCN(C)CC1 [Olanzapine]
- % Tg (global targeting coefficient) ([3]; mouse kidney target tissue T1): 40%
- F1 (%) [3, 5]: 52.2%
- distribution in the kidney section (MS image, FIG. 6) ([3]; mouse kidney, oral 8 mg/kg): mainly localized in the right half section of the medulla
- affinity / targeting behavior for the medulla region ([3]; mouse kidney, summary of Example 1): mean affinity
